# Laboratory results from PMC10222203 (Pharmaceutics, 2023).
# Columns and labels:
# [1] = rat; for Kp at 4 h / Kp uu: in vivo; for Kp at 4 h / Total brain-to-plasma concentration ratio, Kp,brain: 0.5 mg/kg, 4 h infusion, total dose 0.5 mg/kg; for Kp at 4 h: Total brain-to-plasma concentration ratio, Kp,brain; for Kp at 4 h / Kp uu / Kp,uu,brain as percent equilibrating across the BBB / Total brain-to-plasma concentration ratio, Kp,brain / Unbound brain-to-plasma concentration ratio, Kp,uu,brain: steady state; for Kp uu: Unbound brain-to-plasma concentration ratio, Kp,uu,brain; for Kp uu / Unbound brain-to-plasma concentration ratio, Kp,uu,brain: Kp,brain/(fu,plasma × Vu,brain); for Total steady-state plasma concentration, Cplasma,ss: listed in Table S3
# Protocol: In order to assure the accurate assessment of the extent of BBB transport and to minimize the use of animals, the achievement of steady-state conditions of total plasma concentration and equilibration across the blood–brain interface are critical. […] The infusion was administered through the catheter placed in the femoral vein. Blood (200 µL) was sampled from the catheter in the femoral artery at 1, 2, and 3 h into heparinized tubes to ensure that steady-state conditions were obtained in plasma. At 4 h, blood was sampled through heart puncture using EDTA vacutainers (BD, Eysins, Switzerland), and the whole brain was collected. The blood samples were centrifuged, and plasma was collected. All samples were immediately frozen on dry ice and then kept at −20 °C pending analysis.
# The in vivo total brain-to-plasma concentration ratio, Kp,brain, was studied by measuring steady-state concentrations in plasma and the total amount in the brain (Equation (1)). (1) Kp,brain=Abrain/Cplasma where Abrain is the total amount of peptide in the brain calculated using Equation (2), including compensation for the residual cerebral blood, and Cplasma is total plasma concentration (µg/mL).
# The unbound brain-to-plasma ratio, Kp,uu,brain, was calculated using Equation (13) according to the CMA [37], where Kp,brain is the total brain-to-plasma ratio, fu,plasma is the unbound fraction in plasma as measured with equilibrium dialysis, and Vu,brain is the unbound volume of distribution in brain measured with the brain slice technique. (13) Kp,uu,brain=Kp,brain/fu,plasma×Vu,brain
# in vitro [2] = assay: in vitro
# in vitro [3] = assay: in vitro; remark: listed apart in the source
# Protocol: (§1) The in vitro BBB model, consisting of CD34^+ endothelial cells (ECs) derived from hematopoietic stem cells in co-culture with bovine brain pericytes, was established as described by Cecchelli et al.. Written and informed consent was obtained for the collection of human umbilical cord blood, in compliance with French legislation. […] All experiments were carried out in line with the authorized protocol.
# (§2) These isolated CD34+ cells were cultured in EGM-2, supplemented with 20% (v:v) FBS and 50 ng/mL vascular endothelial growth factor on 1% (w:v) gelatine-coated 24-well plates (2 × 10^5 cells/well). After 15–20 days, ECs are seen in the culture dish. For each experiment, the cells were expanded in 1% (w:v) gelatine-coated T75 flasks (BD Biosciences, Le Pont-de-Claix, France) in EGM-2. Bovine brain pericytes were isolated and characterized as described by Vandenhaute et al.. Sub-clones were cultured in Dulbecco’s Modified Eagle’s Medium supplemented with 20% (v:v) FBS, 2 mM L-glutamine, 50 µg/mL gentamycin, and 1 ng/mL basic fibroblast growth factor. At confluency, 5 × 10^4 cells were seeded in ECM-5 with 5% (v:v) FBS, 50 µg/mL gentamycin, and 0.5% endothelial cell growth factor in gelatine-coated 12-well plates (Costar, Corning Inc., New York, NY, USA). CD34^+-derived ECs were seeded at 8 × 10^4 cells per Matrigel-coated (BD Biosciences) insert (3401, Corning Inc., NY, USA) and put in co-culture with the bovine brain pericytes, with the pericytes at the bottom of the well, for 6 days to achieve brain-like endothelial cell (BLEC) characteristics (Figure 4b).
# (§3) At the beginning of the permeability experiments, inserts with BLEC monolayers were transferred to new abluminal (receiver) compartments previously filled with 1.5 mL of RH buffer, and 500 µL of the compounds dissolved in RH buffer, with the addition of the paracellular marker sodium fluorescein (NaFlu), were added to the luminal (donor) compartment. After 3 h of incubation at 37 °C, with a shaking velocity of 60 rpm, aliquots were taken from the donor and receiver compartment. The BLEC monolayers were washed twice with cold RH buffer and lysed with RLT Lysis buffer. The samples were kept at −20 °C pending analysis in low-binding tubes.
# (§4) An increase in the permeability to NaFlu in the presence of the peptide can indicate an increase in paracellular leakage and consequent loss of barrier integrity. To evaluate the ability of test compounds to cross Matrigel-coated filters without cells and to control for the adsorption to plastics and/or Matrigel, the NaFlu and peptide’s permeability over inserts without cells were also assessed. Mass balance (M.B%) was calculated from the amount of compound recovered in both compartments at the end of the experiment divided by the total amount added to the donor compartment at the start of the experiment.
# (§5) Samples from both compartments as well as the lysed endothelial cells were analysed for fluorescence using a Synergy H1 (Biotek) set to quantify NaFlu (wavelengths Excitation 490 nm and Emission 525 nm) and with UPLC-MS/MS to assess the permeability and cellular uptake of the peptides. All experiments were performed in triplicate (n = 3 independent experiments per concentration and cCPPs).
# (§6) Papp is the apparent permeability, J is the rate of appearance of the compound in the receiver compartment (amount/sec), and C0 is the concentration in the donor compartment at the start of the experiment (amount/mL).
# [4] = test system: brain-like endothelial cells (BLECs); assay: in vitro
# Protocol: as §1, §2, §3, §4, §5, §6
# plasma proteins = conditions: undiluted rat plasma, 1 µM, equilibrium dialysis 6 h 37 °C
# Protocol: (§7) Peptide binding to plasma proteins, brain tissue homogenate, and lung tissue homogenate as well as to neuronal and astrocyte cell culture homogenates was investigated using equilibrium dialysis [47]. Undiluted plasma and brain from three peptide-naïve rats were used in the experiment. The brain homogenate was prepared by homogenizing 1 part brain with 4 parts of phosphate-buffered saline (PBS, pH 7.4). […] Semi-permeable membranes with a molecular weight cut-off of 12–14 kDa were used and placed in an HTD96b apparatus (HTDialysis, Gales Ferry, CT, USA). The undiluted plasma and respective homogenates were spiked with individual peptide to a concentration of 1 µM and were dialyzed against PBS (pH 7.4). Five technical replicates were prepared per biological replicate. The experiment was run for 6 h at 37 °C in a MaxQ4450 shaker (Thermo Fisher Scientific, NinoLab, Sweden) at 200 rpm. […] Aliquots (80 µL) were taken from the buffer and plasma/homogenate sides. To compensate for any differences in matrix during bioanalysis, the plasma and homogenate samples were mixed with equal volumes of blank buffer, and the buffer samples were mixed with an equal volume of relevant blank plasma/homogenate. Spiked plasma and respective homogenate samples were incubated to control for relative recovery and thermal stability of the peptides in respective matrices.
# (§8) The unbound fraction in undiluted plasma was calculated using Equation (5), where Cbuffer is the unbound concentration of peptide in the buffer and Cplasma is the total concentration of peptide in plasma at 6 h. The binding of peptide in various homogenates was assessed in two steps. First, the fraction of unbound peptide in the diluted homogenate, fu,h,D, was calculated using Equation (6), where Chomogenate is the total concentration of peptide in respective homogenate at 6 h. Second, the correction for the dilution was implemented as described in Equation (7), where D is the dilution factor used in the preparation [47]. D was 5 for brain and lung homogenates and on average 35.3 for the cell culture studies, as determined based on the total protein content and the total volume of lysate. (5) fu,plasma=Cbuffer/Cplasma (6) fu,h,D=Cbuffer/Chomogenate (7) fu,tissue/cell=1/D/((1/fu,h,D )−1)+1/D
# in vitro [5] = conditions: rat, undiluted plasma, pH 7.4, Fraction unbound in plasma, fu,plasma, equilibrium dialysis 6 h 37 °C
# Protocol: as §7, §8
# [6] = brain tissue homogenate, equilibrium dialysis
structure (smiles),measurement,setting,value
CC(C)C[C@@H]1NC(=O)CNC(=O)[C@H](CC(N)=O)NC(=O)[C@H](CCCNC(=N)N)NC(=O)[C@H]([C@@H](C)O)NC(=O)[C@@H]2CSSC[C@@H]3NC(=O)[C@H]([C@@H](C)O)NC(=O)CNC(=O)CNC(=O)[C@H](C(C)C)NC(=O)[C@@H]4CSSC[C@H](NC(=O)[C@H]([C@@H](C)O)NC(=O)[C@H](CSSC[C@H](NC(=O)[C@H](C(C)C)NC(=O)[C@@H]5CCCN5C1=O)C(=O)NCC(=O)N[C@@H](CCC(=O)O)C(=O)N[C@@H]([C@@H](C)O)C(=O)N4)NC(=O)CNC(=O)[C@@H]1CCCN1C(=O)[C@H]([C@@H](C)O)NC(=O)[C@H](CC(N)=O)NC3=O)C(=O)N[C@@H](CO)C(=O)N[C@@H](Cc1c[nH]c3ccccc13)C(=O)N1CCC[C@H]1C(=O)N[C@@H](C(C)C)C(=O)N2 [Kalata B1],Kp at 4 h,[1],0.23
same,Kp uu,[1],0.005
same,"Kp,uu,brain as percent equilibrating across the BBB",[1],0.5%
same,"Total brain-to-plasma concentration ratio, Kp,brain",[1],0.234 ± 0.083
same,"Unbound brain-to-plasma concentration ratio, Kp,uu,brain",[1],0.00479 ± 0.0023
same,"Total steady-state plasma concentration, Cplasma,ss",[1],1096 nmol/L
same,Bound to brain tissue constituents,in vitro [2]; [6],93%
same,fraction unbound,"in vitro [2]; rat, brain homogenate",0.0639 ± 0.0072
same,Papp,"in vitro [3]; Endothelial permeability, Pe (average across concentrations), BLEC monolayer, 3 h, 37 °C",3.83 ×10⁻⁶ cm/s
same,Papp,"in vitro [3]; Papp, human in vitro BBB model, value used in simulation (Table S3)",3.19 ×10⁻⁶ cm/s
same,Percent of the initial amount in the lysed endothelial cells,[4]; BLECs exposed to 1000 nM peptide,0.09%
same,Percent of the initial amount in the lysed endothelial cells,[4]; BLECs exposed to 2000 nM peptide,0.23%
same,Percent of the initial amount in the lysed endothelial cells,[4]; BLECs exposed to 4000 nM peptide,3.50%
same,Percent of the initial amount in the lysed endothelial cells,[4]; BLECs pre-exposed to 500 nM peptide,0.19%
same,"Fraction unbound in plasma, fu,plasma",plasma proteins,0.299 ± 0.095
"CC[C@H](C)[C@@H]1NC(=O)[C@@H]2CCCN2C(=O)[C@@H]2CCCN2C(=O)[C@H]([C@@H](C)CC)NC(=O)[C@H](CO)NC(=O)[C@H](CCCCN)NC(=O)[C@H]([C@@H](C)O)NC(=O)[C@@H]2CSSC[C@H](NC1=O)C(=O)N[C@@H](Cc1ccccc1)C(=O)N1CCC[C@H]1C(=O)N[C@@H](CC(=O)O)C(=O)NCC(=O)N[C@@H](CCCNC(=N)N)C(=O)N2 [SFTI-1, sunflower trypsin inhibitor-1]",Kp at 4 h,[1],0.06
same,Kp uu,[1],0.13
same,"Kp,uu,brain as percent equilibrating across the BBB",[1],13%
same,"Total brain-to-plasma concentration ratio, Kp,brain",[1],0.0618 ± 0.0318
same,"Unbound brain-to-plasma concentration ratio, Kp,uu,brain",[1],0.129 ± 0.0698
same,"Total steady-state plasma concentration, Cplasma,ss",[1],400 nmol/L
same,Brain tissue binding (in words),in vitro [2]; [6],almost no brain tissue-binding capacity
same,"fraction unbound at 6 h, 1 µM","in vitro [2]; rat, brain homogenate (1 part brain with 4 parts PBS), pH 7.4",0.951 ± 0.115
same,Papp A→B at 3 h,"in vitro [3]; human, pH 7.4",2.62 ×10⁻⁶ cm/s
same,Papp at 3 h,"in vitro [3]; human, pH 7.4, Endothelial permeability, Pe (average across concentrations), BLEC monolayer, 3 h, 37 °C",3.8 ×10⁻⁶ cm/s
same,Detection in the lysed endothelial cells,[4]; BLECs at end of transport experiment,did not detect
same,"Fraction unbound in plasma, fu,plasma",plasma proteins,0.936 ± 0.038
same,"fraction unbound at 6 h, 1 µM",in vitro [5],0.94
